The record followed here is US5798362A, “Quinazolinyl-amino derivatives having α-antagonist activity” (Recordati S.A. Chemical and Pharmaceutical Company, priority 1994, dated 1998).

The nature of one data set: in vivo. The following applies: mouse, mice, mortality 7 days after administration. Here is the method:
20-30 g b.w., were obtained from Charles River, Italy. Animals were housed with free access to food and water and maintained on forced light-dark cycle at 22°-24° C. until the day of experiments.
The acute toxicity of synthesized compounds was evaluated in female Albino Swiss mice after intraperitoneal and oral administration. Four logarithmic scaled doses of the compounds were dissolved or suspended in 0.5% Methocel and administered in a volume of 10 ml/kg to groups of 4 mice/dose. Mortality was recorded 7 days after the administration.

Data set [1] concerns the target α1-receptors ([3H]prazosin). The data set can be described thus: [3H]Prazosin binding (α1-receptors), rat cerebral cortices. The note with it: rat cerebral cortex, 0.35 nM [3H]prazosin, 25° C., 30 min; read-out: [3H] prazosine IC50. On the procedure: Rat cerebral cortices were homogenized in 50 volumes of original wet weight of ice-cold 50 mM Tris-HCl buffer pH 7.4. The homogenates were centrifuged at 48,000 × g for 10 minutes, and the pellets were resuspended in the same volume of ice-cold buffer, centrifuged and resuspended two more times. […] The incubations were terminated by rapid filtration through Whatman GF/B, filters using a Brandel cell harvester and the filters were washed with 3×3 ml of ice-cold buffer. The radioactivity retained on the filters was determined by liquid scintillation counting. Data analysis The inhibition of specific binding of the radioligands by the tested drugs was analyzed to estimate the IC50 value by using the non-linear curve-fitting program Allfit [A. De Lean et al., Am. J. Physiol.

Setting [2] is: ip, intraperitoneal, read-out: DL50 i.p.

Where a name gives a salt, the structure may show the parent alone. Read-outs that look alike come from different tables or passages of the source.

With `COc1cc2nc(N3CCN(Cc4ccccc4)CC3)nc(N)c2cc1OC` [Example 1, 4-Amino-6,7-dimethoxy-2-(4-benzyl-1-piperazinyl)-guinazoline bihydrochloride hemihydrate], the LD50 at 168 h came out at 76 mg/kg in the data set “in vivo” (setting [2]) and 301 mg/kg in the data set “in vivo” (oral, read-out: DL50 p.o.). The IC50 in data set [1] was determined as 32 nM.

Consider `COc1cc2nc(N3CCN(C(c4ccccc4)c4ccccc4)CC3)nc(N)c2cc1OC` [Example 2, 4-Amino-6,7-dimethoxy-2-(4-diphenylmethyl-1-piperazinyl)-guinazoline bihydrochloride emihydrate], for which the IC50 in data set [1] is 40 nM.

`COc1cc2nc(N3CCN(C(=O)C(c4ccccc4)c4ccccc4)CC3)nc(N)c2cc1OC` [Example 3, 4-Amino-6,7-dimethoxy-2-[4-(2,2-diphenylacetyl)-1-piperazinyl]-quinazoline hydrochloride . 0.75 H2 O]: the LD50 at 168 h turned out to be 112 mg/kg in “in vivo” (setting [2]) and 868 mg/kg in the data set “in vivo” (oral, read-out: DL50 p.o.). Also, the IC50 in data set [1] worked out at 5 nM.

`COc1cc2nc(N3CCN(C(=O)CC(c4ccccc4)c4ccccc4)CC3)nc(N)c2cc1OC` [Example 4, 4-Amino-6,7-dimethoxy-2-[4-(3,3-diphenylpropionyl)-1-piperazinyl]-guinazoline hydrochloride]: the LD50 at 168 h in the data set “in vivo” (setting [2]) is 97 mg/kg; in “in vivo” (oral, read-out: DL50 p.o.) it was more than 3000 mg/kg. Also, the IC50 in data set [1] was determined as 3 nM.

For `COc1cc2nc(N3CCN(C(=O)CCNC(=O)OCc4ccccc4)CC3)nc(N)c2cc1OC` [Example 5, 4-Amino-6,7-dimethoxy-2-{4-[(3-benzyloxycarbonylamino)propionyl]-1-piperazinyl}-quinazoline hydrochloride emihydrate], the LD50 at 168 h in the data set “in vivo” (setting [2]) was 300 mg/kg; in the data set “in vivo” (oral, read-out: DL50 p.o.), more than 3000 mg/kg. For the same compound, the IC50 in data set [1] was 283 nM.

`COc1cc2nc(N3CCN(C(=O)CCCNC(=O)OCc4ccccc4)CC3)nc(N)c2cc1OC` [Example 6, 4-Amino-6,7-dimethoxy-2-{4-[(4-benzyloxycarbonylamino)butirryl]-1-piperazinyl}-quinazoline hydrochloride . 1.5 H2 O]: the LD50 at 168 h in the data set “in vivo” (setting [2]) was more than 1000 mg/kg; in “in vivo” (oral, read-out: DL50 p.o.), more than 3000 mg/kg. The IC50 in data set [1] worked out at 29 nM.

For the compound `COc1cc2nc(N3CCN(C(=O)CCN)CC3)nc(N)c2cc1OC` [Example 7, 4-Amino-6,7-dimethoxy-2-[4-(3-aminopropionyl)-1-piperazinyl]-guinazoline dihydrobromide . 1.75 H2 O], the LD50 at 168 h in the data set “in vivo” (setting [2]) is 187 mg/kg; in “in vivo” (oral, read-out: DL50 p.o.), more than 3000 mg/kg. Further, the IC50 in data set [1] is 48 nM.

Consider `COc1cc2nc(N3CCN(C(=O)CCCN)CC3)nc(N)c2cc1OC` [Example 8, 4-Amino-6,7-dimethoxy-2-[4-(4-aminobutirryl)-1-piperazinyl]-guinazoline dihydrobromide . 0.25 H2 O], for which the LD50 at 168 h is 219 mg/kg in the data set “in vivo” (setting [2]) and more than 3000 mg/kg in the data set “in vivo” (oral, read-out: DL50 p.o.). For the same compound, the IC50 in data set [1] turned out to be 47 nM.

With `COc1cc2nc(N3CCN(C(=O)CCCNS(C)(=O)=O)CC3)nc(N)c2cc1OC` [Example 9, 4-Amino-6,7-dimethoxy-2-{4-[(4-methylsulfonylamino)butirry]-1-piperazinyl}-quinazoline hydrochloride], the LD50 at 168 h in “in vivo” (setting [2]) is more than 500 mg/kg. Further, the IC50 in data set [1] came out at 86 nM.

Regarding `COc1cc2nc(N3CCN(C(=O)NCCN(C)C)CC3)nc(N)c2cc1OC.Cl.Cl.O.O.O.O` [Example 10, 4-Amino-6,7-dimethoxy-2-{4-[(2-dimethylaminoethyl)amino-carbonyl]-1-piperazinyl}-quinazoline dihydrochloride tetrahydrate], the LD50 at 168 h in the data set “in vivo” (setting [2]) is 23 mg/kg; in “in vivo” (oral, read-out: DL50 p.o.) it was 1350 mg/kg. For the same compound, the half-inhibitory concentration (IC50) in data set [1] was 55 nM.

Consider `COc1cc2nc(N3CCN(C(=O)CNC(=O)OCc4ccccc4)CC3)nc(N)c2cc1OC.Cl` [Example 11, 4-Amino-6,7-dimethoxy-2-{4-[2-(benzyloxycarbonylamino)-acetyl]-1-piperazinyl}-quinazoline hydrochloride], for which the LD50 at 168 h is more than 1000 mg/kg in “in vivo” (setting [2]) and more than 3000 mg/kg in the data set “in vivo” (oral, read-out: DL50 p.o.). For the same compound, in data set [1], the concentration for half-maximal inhibition (IC50) worked out at 61 nM.

On to `COc1cc2nc(N3CCN(C(=O)CNC(=O)CNC(=O)OCc4ccccc4)CC3)nc(N)c2cc1OC` [Example 12, 4-Amino-6,7-dimethoxy-2-{4-[2-[2-(benzyloxycarbonylamino)-acetylamino]acetyl]-1-piperazinyl}-quinazoline hydrochloride hemihydrate], for which the LD50 at 168 h in “in vivo” (setting [2]) is 1130 mg/kg; in the data set “in vivo” (oral, read-out: DL50 p.o.), more than 2000 mg/kg. For the same compound, the IC50 in data set [1] stood at 29 nM.

As to `COc1cc2nc(N3CCN(C(=O)CC(O)c4ccccc4)CC3)nc(N)c2cc1OC` (stereo not drawn) [Example 14, 4-Amino-6,7-dimethoxy-2-[4-(3-hydroxy-3-phenylpropionyl)-1-piperazinyl]-quinazoline], the LD50 at 168 h was more than 1000 mg/kg in the data set “in vivo” (setting [2]) and more than 3000 mg/kg in the data set “in vivo” (oral, read-out: DL50 p.o.). In addition, the IC50 in data set [1] was found to be 19 nM.

Regarding `COc1cc2nc(N3CCN(C(=O)CCC(=O)c4ccccc4)CC3)nc(N)c2cc1OC.Cl.O` [Example 15, 4-Amino-6,7-dimethoxy-2-{4-[(3-benzoyl)propionyl]-1-piperazinyl}-quinazoline hydrochloride hydrate], the LD50 at 168 h was more than 1000 mg/kg in “in vivo” (setting [2]) and more than 3000 mg/kg in the data set “in vivo” (oral, read-out: DL50 p.o.). Further, in data set [1], the IC50 stood at 15 nM.

Take `COc1cc2nc(N3CCN(C(=O)CCC(O)c4ccccc4)CC3)nc(N)c2cc1OC` (stereo not drawn) [Example 16, 4-Amino-6,7-dimethoxy-2-[4-(4-phenyl-4-hydroxybutirryl)-1-piperazinyl]-quinazoline maleate (1:1)]: the LD50 at 168 h in the data set “in vivo” (setting [2]) was 253 mg/kg; in “in vivo” (oral, read-out: DL50 p.o.) it was more than 3000 mg/kg. The IC50 in data set [1] turned out to be 17 nM.

Consider `COc1cc2nc(N3CCN(C(=O)CC(N)=O)CC3)nc(N)c2cc1OC` [Example 17, 4-Amino-6,7-dimethoxy-2-[4-(3-oxo-3-aminopropionyl)-1-piperazinyl]-quinazoline hydrochloride hydrate], for which the IC50 in data set [1] amounted to 105 nM.

`CCOC(=O)CC(=O)N1CCN(c2nc(N)c3cc(OC)c(OC)cc3n2)CC1.Cl` [Example 18, 4-Amino-6,7-dimethoxy-2-[4-(2-ethoxycarbonylacetyl)-1-piperazinyl]-quinazoline hydrochloride]: the LD50 at 168 h in “in vivo” (setting [2]) is more than 1000 mg/kg; in the data set “in vivo” (oral, read-out: DL50 p.o.) it was more than 3000 mg/kg. In addition, in data set [1], the IC50 was found to be 54 nM.

Consider `CCCCNC(=O)CC(=O)N1CCN(c2nc(N)c3cc(OC)c(OC)cc3n2)CC1.Cl` [Example 19, 4-Amino-6,7-dimethoxy-2-[4-(3-n-butylamino-3-oxopropionyl)-1-piperazinyl]-quinazoline hydrochloride], for which the LD50 at 168 h in “in vivo” (setting [2]) is 459 mg/kg; in “in vivo” (oral, read-out: DL50 p.o.) it was more than 2000 mg/kg. Further, the IC50 in data set [1] was 96 nM.

As for `COc1cc2nc(N3CCN(C(=O)CC(=O)Nc4ccccc4)CC3)nc(N)c2cc1OC` [Example 20, 4-Amino-6,7-dimethoxy-2-[4-(phenylaminocarbonylacetyl)-1-piperazinyl]-quinazoline hydrochloride hemihydrate], the IC50 in data set [1] turned out to be 67 nM.

On to `COc1cc2nc(N3CCN(C(=O)C(C)(C)Oc4ccccc4)CC3)nc(N)c2cc1OC` [Example 21, 4-Amino-6,7-dimethoxy-2-[4-(2-phenoxy-2-methylpropionyl)-1-piperazinyl]-quinazoline hydrochloride . 1.5 H2 O], for which the LD50 at 168 h in “in vivo” (setting [2]) was 206 mg/kg; in the data set “in vivo” (oral, read-out: DL50 p.o.) it was more than 1700 mg/kg. In addition, the IC50 in data set [1] came to 99 nM.

On to `COc1cc2nc(N3CCN(C(=O)C(C)(C)Oc4ccccc4OC)CC3)nc(N)c2cc1OC.Cl` [Example 22, 4-Amino-6,7-dimethoxy-2-{4-[2-(2-methoxyphenoxy)-2-methylpropionyl]-1-piperazinyl}-quinazoline hydrochloride], for which the LD50 at 168 h in the data set “in vivo” (setting [2]) was 435 mg/kg; in the data set “in vivo” (oral, read-out: DL50 p.o.), more than 3000 mg/kg. Moreover, the IC50 in data set [1] worked out at 49 nM.

As for `COc1cc2nc(N3CCN(C(=O)COc4ccccc4OC)CC3)nc(N)c2cc1OC.Cl` [Example 23, 4-Amino-6,7-dimethoxy-2-[4-(2-methoxyphenoxyacetyl)-1-piperazinyl]-quinazoline hydrochloride], the LD50 at 168 h in “in vivo” (setting [2]) was 337 mg/kg; in the data set “in vivo” (oral, read-out: DL50 p.o.) it was more than 2000 mg/kg.

Take `COc1cc2nc(N3CCN(C(=O)COc4cc(C)ccc4C(C)C)CC3)nc(N)c2cc1OC` [Example 25, 4-Amino-6,7-dimethoxy-2-{4-[(2-isopropyl-5-methylphenoxy)acetyl]-1-piperazinyl}-quinazoline hydrochloride . 0.25 H2 O]: the LD50 at 168 h in the data set “in vivo” (setting [2]) was 346 mg/kg; in the data set “in vivo” (oral, read-out: DL50 p.o.), more than 3000 mg/kg. Further, in data set [1], the IC50 is 157 nM.

`COc1cc2nc(N3CCN(C(=O)COc4c(OC)cccc4OC)CC3)nc(N)c2cc1OC` [Example 27, 4-Amino-6,7-dimethoxy-2-[4-(2,6-dimethoxyphenoxy)acetyl-1-piperazinyl]-quinazoline hydrochloride . 0.25 H2 O]: in data set [1], the IC50 stood at 6 nM.

As for `COc1cc2nc(N3CCc4c(ccc5ccccc45)C3)nc(N)c2cc1OC` [Example 30, 4-Amino-6,7-dimethoxy-2-(1,2,3,4-tetrahydrobenzo[f]isoquinolin-2-yl)-quinazoline . 0.25 ethanole], in data set [1], the IC50 came out at 5 nM.

As a reminder, the IC50 is the concentration at which inhibition is half-maximal.
